The test system of experiment [1] is S. aureus 8325-4 hssR::bursa/pRMC2-hssRS (complementation of hssR transposon mutant). Briefly: MIC, microbroth dilution. The note with it: 8325-4 hssR::bursa/pRMC2-hssRS compared to 8325-4 hssR::bursa, MIC. The class given is cell-based, Staphylococcus aureus. The procedure: Protamine was purchased from Sigma (P4020-5G). Plectasin, eurocin, novicidin, and novispirin G10 were supplied by Department of Antiinfective Discovery, Novozymes A/S. The host defence peptides were dissolved in 0.01% acetic acid/0.1% bovine serum albumin (Sigma, A7906).
Minimal inhibitory concentrations (MIC) of plectasin, eurocin, protamine, novicidin, and novispirin G10 were determined using a microbroth dilution method. Colonies from a BHI plate incubated overnight at 37 °C were suspended in MHB pH 7.4 to an absorbance at 546 nm of 0.11-0.12 at 546 nm (approx. 1.0 × 10^8 CFU/ml) and diluted in MHB to a concentration of 5.0 × 10^5 CFU/ml. Ninety μl of bacterial suspension was incubated with 10 μl of peptide solution in polypropylene 96-well plates (Nunc, 442587) for 18-24 h at 37°C. The peptide solutions were made fresh on the day of assay. The range of concentrations assayed were 0.25-256 μg/ml for plectasin and eurocin, 0.125-128 μg/ml for protamine and novispirin G10, and 0.031-32 μg/ml for novicidin. MIC was the lowest peptide concentration at which visual growth was inhibited.

The subject of another experiment is L. monocytogenes. The note with it: cited from earlier work. The source says: (§1) In the present study, we addressed the response of two human pathogens, S. aureus and L. monocytogenes to plectasin. […] In addition, the two bacteria represent different routes of infection and may be exposed to different arrays of HDPs. S. aureus is a hospital- and community-acquired pathogen that causes a wide range of diseases including septicaemia, toxic-shock syndrome and food poisoning ...

Experiment [2] relates to methicillin resistant S. aureus (MRSA). As to conditions: cited from earlier work.
Description: as §1

The values below come from publication PMC3001719, “The heme sensing response regulator HssR in Staphylococcus aureus but not the homologous RR23 in Listeria monocytogenes modulates susceptibility to the antimicrobial peptide plectasin” (BMC Microbiology, 2010).

In the case of `CC[C@H](C)[C@@H]1NC(=O)[C@H](CO)NC(=O)[C@H](CCCCN)NC(=O)[C@@H]2CSSC[C@@H](C(=O)N[C@@H](Cc3ccc(O)cc3)C(=O)O)NC(=O)[C@H](CCCCN)NC(=O)[C@@H]3CSSC[C@H](NC(=O)[C@H](CCC(N)=O)NC(=O)[C@H](CCSC)NC(=O)[C@H](CC(=O)O)NC(=O)[C@H](CC(=O)O)NC(=O)[C@H](CCC(=O)O)NC(=O)[C@H](CC(=O)O)NC(=O)[C@H](Cc4c[nH]c5ccccc45)NC(=O)[C@@H]4CCCN4C(=O)CNC(=O)[C@H](CC(N)=O)NC(=O)[C@@H](NC(=O)CNC(=O)[C@H](Cc4ccccc4)NC(=O)CN)CSSC[C@H](NC(=O)[C@H](Cc4ccc(O)cc4)NC(=O)CNC(=O)CNC(=O)[C@H](CCCCN)NC(=O)[C@H](Cc4ccc(O)cc4)NC(=O)CNC(=O)[C@H](CCCCN)NC1=O)C(=O)N[C@@H](C)C(=O)N[C@@H](CCCCN)C(=O)NCC(=O)NCC(=O)N[C@@H](Cc1ccccc1)C(=O)N[C@@H](C(C)C)C(=O)N3)C(=O)N[C@@H](Cc1c[nH]cn1)C(=O)N[C@@H](CC(N)=O)C(=O)N[C@@H](Cc1c[nH]cn1)C(=O)N2` [plectasin], in experiment [1], the “Decrease of resistance by complementation” value is listed as 2 fold. Moreover, the MIC (commonly the smallest concentration in the dilution series that meets the test's criterion for growth inhibition) in the experiment with L. monocytogenes was “above 64 mg/L”; in experiment [2] it was 16 to 32 µg/mL.
